Patent publication US9416130B2, “4-(8-methoxy-1-((1-methoxypropan-2-yl)-2-(tetrahydro-2H-pyran-4-yl)-1 H-imidazo[4,5-C]quinolin-7-yl)-3,5-dimethylisoxazole and its use as bromodomain inhibitor” (GlaxoSmithKline LLC, priority 2011, dated 2016)
Where two headings read alike, the source gives them in different places. Blank lines part the entries; values can stand above or below the compound they belong to.

Assays:
[1] = test system: LPS induced IL-6 secretion from whole blood; experiment: LPS induced IL-6 secretion from whole blood; format: cell-based; details: LPS 200 ng/ml, 24 hours, IL-6 immunoassay
Procedure: Measurement of LPS Induced IL-6 Secretion from Whole Blood
Activation of monocytic cells by agonists of toll-like receptors such as bacterial lipopolysaccharide (LPS) results in production of key inflammatory mediators including IL-6. Such pathways are widely considered to be central to the pathophysiology of a range of auto-immune and inflammatory disorders.
Compounds to be tested are diluted to give a range of appropriate concentrations of which 1 μl of the diluted stocks is added to a 96 well plate. Following addition of whole blood (130 ul) the plates are incubated at 37 degrees (5% CO2) for 30 min before the addition of 10 μl of 2.8 ug/ml LPS, diluted in complete RPMI 1640 (final concentration=200 ng/ml), to give a total volume of 140 μl per well. After further incubation for 24 hours at 37 degrees, 140 μl of PBS are added to each well. The plates are sealed, shaken for 10 minutes and then centrifuged (2500 rpm×10 min). 100 μl of the supernatant are removed and IL-6 levels assayed by immunoassay (typically by MesoScale Discovery technology) either immediately or following storage at −20 degrees. Concentration response curves for each compound was generated from the data and an IC50 value was calculated

[2] = test system: Multiple myeloma cell lines; experiment: Oncology cell growth assay (384-well, CellTiter-Glo); format: cell-based, Human
Procedure: (§1) Oncology Cell Growth Assay
(§2) Human cell lines (n=80 comprising cell lines described in Table 2 below) were cultured in RPMI-1640 containing 10% fetal bovine serum, 1000 viable cells per well were plated in 384-well black flat bottom polystyrene plates (Greiner #781086) in 48 μl of culture media. All plates were placed at 5% CO2, 37° C. overnight. The following day one plate was harvested with CellTiter-Glo (CTG, Promega #G7573) for a time equal to 0 (T0) measurement and compound (20 point titration from 14.7 uM to 7 pM) was added to the remaining plates. The final concentration of DMSO in all wells was 0.15%. Cells were incubated for 72 hours or the indicated time and each plate was developed with CellTiter-Glo reagent using a volume equivalent to the cell culture volume in the wells. Plates were shaken for approximately 2 minutes and chemiluminescent signal was read on the Analyst GT (Molecular Devices) or EnVision Plate Reader (Perkin Elmer).
(§3) Results are expressed as a percent of the T0 and plotted against the compound concentration. The T0 value was normalized to 100% and represents the number of cells at time of compound addition and the concentration response data were fit with a 4 parameter curve fit using XLfit software (model 205). The concentration that inhibited cell growth by 50% (gIC50) is the midpoint of the ‘growth window’ (between the T0 and DMSO control). The Ymin−T0 value is determined by subtracting the T0 value (100%) from the Ymin value (%) determined from the fit of the concentration response curve. Values from the wells with no cells were subtracted from all samples for background correction.

[3] = test system: LPS-induced serum IL-6; experiment: In vivo mouse model to demonstrate modulation of pro-inflammatory response (i.v. LPS); design: species or system Male CD1 mice; details: for reduced maximum (Cmax) IL-6 levels / reduced total exposures (AUC) of IL-6: 1 h before i.v. LPS 100 μg/kg, mouse
Procedure: Male CD1 mice (25-30 g, n=4 per group) received a single i.v. bolus injection of LPS (100 μg/kg) via the tail vein 1 h after pre-treatment with a single oral administration of either vehicle (1% (w/v) methylcellulose in sterile water) or the test compound (3, 10 and 30 mg/kg). Serial blood samples were obtained from the tail vein by direct venepuncture at various time points up to 5 h post-LPS administration for analysis of IL-6 and the test compound concentrations by Meso Scale Discovery (MSD) analysis and LC-MS/MS respectively.

[4] = test system: Breast cancer (ductal) cell line; experiment: Oncology cell growth assay (analogous procedure, 96 well plates); format: cell-based; details: Homo sapiens, 1 breast cancer (ductal) line, read-out: gIC50
Procedure: as §2, §3
(§4) The compound of Example 2 was also tested in accordance with an analogous procedure using 96 well plates along with appropriate modifications to volumes and concentrations that would be apparent to those skilled in the art.

[5] = test system: Acute promyelocytic leukemia cell line; experiment: as above; format: cell-based; details: Homo sapiens, 1 acute promyelocytic leukemia line, read-out: gIC50
Procedure: as §2, §3, §4

[6] = test system: Acute monocytic leukemia cell line; experiment: as above; format: cell-based; details: Homo sapiens, 1 acute monocytic leukemia line, read-out: gIC50
Procedure: as §2, §3, §4

[7] = test system: Chronic myeloid leukemia cell line; experiment: as above; format: cell-based; details: Homo sapiens, 1 chronic myeloid leukemia line, read-out: gIC50
Procedure: as §2, §3, §4

[8] = test system: Burkitt's lymphoma cell lines; experiment: as above; format: cell-based; details: Homo sapiens, Burkitts lymphoma cell, range over 3 Burkitt's lymphoma lines, read-out: gIC50
Procedure: as §2, §3, §4

[9] = test system: Cutaneous T cell lymphoma cell line; experiment: as above; format: cell-based; details: Homo sapiens, 1 cutaneous T cell lymphoma line, read-out: gIC50
Procedure: as §2, §3, §4

[10] = test system: Ovarian carcinoma cell line; experiment: as above; format: cell-based; details: Homo sapiens, 1 ovarian carcinoma line, read-out: gIC50
Procedure: as §2, §3, §4

[11] = test system: NUT-midline carcinoma cell lines; experiment: Oncology cell growth assay (384-well, CellTiter-Glo); format: cell-based; details: Homo sapiens; range over 2 NUT-midline carcinoma cell lines; read-out: gIC50
Procedure: as §1, §2, §3

[12] = test system: Cervical cancer cell lines; experiment: as above; format: cell-based; details: Homo sapiens; range over 4 cervical cancer cell lines; read-out: gIC50
Procedure: as §1, §2, §3

[13] = test system: Neuroblastoma cell lines; experiment: as above; format: cell-based; details: Homo sapiens
Procedure: as §1, §2, §3

[14] = test system: Small cell lung cancer (SCLC) cell lines; experiment: as above; format: cell-based; details: Homo sapiens
Procedure: as §1, §2, §3

[15] = test system: Esophageal cell lines; experiment: as above; format: cell-based; details: Homo sapiens
Procedure: as §1, §2, §3

[16] = positive control, maximal reduction observed, mouse LPS model

- IC50 [1]: 100 to 1000 nM
Structure (SMILES): COCC(C)n1c(C2CCOCC2)nc2cnc3cc(-c4c(C)noc4C)c(OC)cc3c21 (centres unmarked) [Example 1, 4-(8-methoxy-1-(1-methoxypropan-2-yl)-2-(tetrahydro-2H-pyran-4-yl)-1H-imidazo[4,5-c]quinolin-7-yl)-3,5-dimethylisoxazole]

- IC50 ([2]; Homo sapiens, median of 16 multiple myeloma cell lines, read-out: gIC50 (median)): 414 nM
- IC50 ([2]; Homo sapiens, range over 16 multiple myeloma cell lines, 72 hours, read-out: gIC50): ≥ 1.1 nM
- IC50 ([2]; range for 15 out of 16 multiple myeloma cell lines, read-out: gIC50): 1.1 to 2000 nM
- IC50 [4]: 537 nM
- IC50 [5]: 141 nM
- IC50 [6]: 123 nM
- IC50 [7]: 776 nM
- IC50 [8]: 181 to 807 nM
- IC50 [9]: 162 nM
- IC50 [10]: 707 nM
- IC50 [11]: 59 to 66 nM
- IC50 [12]: 266 to 847 nM
- IC50 ([13]; median of 12 neuroblastoma cell lines, read-out: gIC50 (median)): 193 nM
- IC50 ([13]; range over 12 neuroblastoma cell lines, read-out: gIC50): 25 to 435 nM
- IC50 ([14]; median of 38 SCLC cell lines, read-out: gIC50 (median)): 538 nM
- IC50 ([14]; range for 35 of the 38 SCLC cell lines, read-out: gIC50): 76 to 2500 nM
- IC50 ([14]; range over 38 SCLC cell lines, 72 hours, read-out: gIC50): ≥ 76 nM
- IC50 [1]: 100 to 1000 nM
Structure (SMILES): COC[C@@H](C)n1c(C2CCOCC2)nc2cnc3cc(-c4c(C)noc4C)c(OC)cc3c21 [Example 2, 4-(8-methoxy-1-((R)-1-methoxypropan-2-yl)-2-(tetrahydro-2H-pyran-4-yl)-1H-imidazo[4,5-c]quinolin-7-yl)-3,5-dimethylisoxazole]
- reduced maximum (Cmax) IL-6 levels ([3]; 3 mg/kg single oral): 46%
- reduced total exposures (AUC) of IL-6 ([3]; 3 mg/kg single oral): 35%
- reduced maximum (Cmax) IL-6 levels ([3]; 10 mg/kg single oral): 79%
- reduced total exposures (AUC) of IL-6 ([3]; 10 mg/kg single oral): 70%
- reduced maximum (Cmax) IL-6 levels ([3]; 30 mg/kg single oral): 73%
- reduced total exposures (AUC) of IL-6 ([3]; 30 mg/kg single oral): 63%
- IC50 ([15]; median of 8 esophageal cell lines, read-out: gIC50 (median)): 759 nM
- IC50 ([15]; range over 8 esophageal cell lines, read-out: gIC50): 208 to 1540 nM

Structure (SMILES): C[C@@H]1C[C@H]2[C@@H]3CCC4=CC(=O)C=C[C@]4(C)[C@@]3(F)[C@@H](O)C[C@]2(C)[C@@]1(O)C(=O)CO [dexamethasone, reference compound]
- reduction in IL-6 AUC [3, 16]: 70%
- reduction in IL-6 Cmax [3, 16]: 73%
